Reference: US5208245A, “Dihydropyridine derivative” (Wakunaga Seiyaku Kabushiki Kaisha, priority 1990, dated 1993)

Columns and labels:
[1] = system: longitudinal muscle of guinea pig ileum; assay: Calcium antagonism: inhibition of KCl-induced contraction of ileum longitudinal muscle; conditions: Cavia porcellus, 1 h; 10^-8 M; 60 min after addition; 80 mM KCl contraction = 100%; 37° C.; read-out: Inhibition rate
Experimental: A guinea pig having a body weight ranging from 350 g to 400 g was exsanguinated to death and laparotomized, to extract ileum. According to the method of Rosenberger et al. (Rosenberger et al., Can. J. Physiol. Pharmacol. 57, 333-347 (1979)), a sample of longitudinal muscle was prepared from the ileum. Then, a mixed gas consisting of 95% oxygen and 5% carbon dioxide was aerated, while the atmosphere was maintained at 37° C. The sample of the longitudinal muscle of the extracted ileum was placed in a magnus tube containing 20 ml of Tyrode solution, and suspended at 0.5 g of tension. As a comparison, 80 mM KCl was administered to contract the longitudinal muscle. Subsequently, 60 min after the addition of each of the test compounds (10^-8 M), the contraction with KCl was again induced. The level of the contraction obtained by the administration of 80 mM KCl was assigned to 100%, and the inhibition rate thereto was determined.

[2] = system: spontaneous hypertensive rats; assay: Antihypertensive action in spontaneous hypertensive rats (SHR), oral administration; type: in vivo, rat; conditions: 10 mg/kg orally, (basal - lowest blood pressure)/basal x 100
Experimental: Test compounds were orally administered to spontaneous hypertensive rats (abbreviated as "SHR" hereinafter) to examine antihypertensive actions thereof.
Two to three days after the operation, the catheter was drawn out from the dorsum cervical part of the rat, and was connected to a blood-pressure measuring device (Polygraph RM-6000 manufactured by Nippon Koden K. K.). Blood pressure and heart rate were measured under the condition without anesthesia and restraint. The test compounds were suspended in 0.5% carboxymethylcellulose for oral administration. To the basal blood pressure obtained by measuring blood pressure over four hours, the lowest blood pressure decreased by the test compounds was used to determine the rate of blood-pressure decrease.
Rate of blood-pressure decrease (%)=(A-B)/A×100
The compound numbers correspond to those indicated in Examples.

[3] = Acute toxicity test, intravenous, mice; conditions: mouse, in vivo, male ddY mice, observed two weeks
Experimental: Male ddY mice (5-7 weeks old) were divided into groups each consisting of 4 mice. The test compounds were dissolved in physiological saline containing 50% polyethylene glycol 400, which was then administered intravenously to the mice, and they were put under observation over two weeks. The analysis was done following the Van der Worden method.

Row | SMILES | inhibition at 0.01 µM [1] [%] | Rate of blood pressure decrease [2] [%] | LD50 at 336 h [3] [mg/kg]
1 | COC(=O)C1=C(C)NC(C)=C(C(=O)OC2CCOc3ccccc32)C1c1cccc(Cl)c1Cl (stereo not drawn) [Compound 3] | 81 | 35.1 | 
2 | COC(=O)C1=C(C)NC(C)=C(C(=O)OC2CC(C)(C)Oc3ccccc32)C1c1cccc(Cl)c1Cl (stereo not drawn) [Compound 21, 3-(3,4-dihydro-2,2-dimethyl-2H-benzo[b]pyran-4-yl)5-methtyl 1,4-dihydro-2,6-dimethyl-4-(2,3-dichorophenyl)pyridine-3,5-dicarboxylate] | 69 | 37.3 | 29.7
3 | CCOC(=O)C1=C(C)NC(C)=C(C(=O)OC2CC(C)(C)Oc3ccccc32)C1c1cccc(Cl)c1Cl (stereo not drawn) [Compound 27, 3-(3,4-dihydro-2,2-dimethyl-2H-benzo[b]pyran-4-yl)5-ethyl 1,4-dihydro-2,6-dimethyl-4-(2,3-dichlorophenyl)pyridine-3,5-dicarboxylate] | 42 | 36.9 | 
4 | COC(=O)C1=C(C)NC(C)=C(C(=O)OC)C1c1ccccc1[N+](=O)[O-] [Nifedipine, reference compound] | 98 | 24.3 | 
